Experimental data published in patent US20050282814A1, “Vasculostatic agents and methods of use thereof” (TargeGen, Inc., priority 2002, published 2005).
Structures can show the parent of a compound that is named as a salt.

What was measured:
[1] = system: Lewis lung carcinoma cells; experiment: Lewis lung carcinoma lung metastases model, alone or with doxorubicin; format: in vivo, Balb/C mice; conditions: I.P. every 3 days for 3 cycles
Method: (§1) Syngeneic Lewis lung carcinoma cells were injected I.V. in order to establish lung metastases in Balb/C mice. Beginning 10 days after cells were injected, doxorubicin (3 mg/kg) and/or 6,7-bis(4-hydroxyphenyl)-pteridin-4-ylamine, sulfate salt (various doses as shown) was given I.P. every 3 days for 3 cycles. Animals were sacrificed at day 20, lungs were collected, and weighed. Net tumor burden is the weight of tumor-bearing lungs minus the average weight of normal control lungs. N=5/group, p<0.02.
as §1, with “The following experiments show the use of vasculostatic agents of the invention alone and in combination with chemotherapeutic agents for treatment of cancer. […] In the experiment shown in FIG. 2, syngeneic” for “Syngeneic”, “mgikg)” for “mg/kg)”, “salt, (compound A—various” for “salt (various”

[2] = system: angiogenesis; experiment: Matrigel plug angiogenesis model (bFGF or VEGF), FITC-lectin; format: in vivo, Athymic WeHi (nu/nu) mice; conditions: 10 mg/kg i.p. bid for four days; matrigel with bFGF or VEGF
Method: FIGS. 13 and 14 illustrate the effects of invention compounds for their capacity to inhibit angiogenesis in vivo. […] Tumor extracellular matrix infused with the 160 ng of the described growth factors were injected subcutaneously in a Balb/C mouse. The described invention compound was injected daily at the described concentration for 5 days. After 5 days the animals were sacrificed and angiogenesis quantified based on the binding of fluorescently labeled, endothelium specific FITC-lectin. In the graph, compound A is 6,7-bis(4-hydroxyphenyl)-pteridin-4-ylamine sulfate salt.
Referring to FIGS. 13 and 14, a murine model of angiogenesis was used to screen compounds for their capacity to inhibit angiogenesis. […] In the graph, compound A is 6,7-bis(4-hydroxyphenyl)-pteridin-4-ylamine sulfate salt. Athymic WeHi (nu/nu) mice were first injected with 400 lls of an ice-cold tumor-derived extracellular matrix substrate, matrigel (Becton-Dickinson) infused with 400 ng/ml of bFGF or VEGF (R&D Systems) which rapidly solidifies into a subdermal plug at body temperature. Mice were subsequently injected intaperitoneally with 10 mg/kg of the indicated compounds bid for four days. […] Twenty minutes after injection of the lectin, mice were euthanized, matrigel plugs were then extracted, solublized in PBS with mechanical grinding and the fluorescent content of individual plugs was quantified. […]

Compound: Nc1ncnc2nc(-c3ccc(O)cc3)c(-c3ccc(O)cc3)nc12 [compound A, 6,7-bis(4-hydroxyphenyl)-pteridin-4-ylamine sulfate salt]
- reduction of tumor burden as a stand alone agent ([1]; lungs weighed at day 20): 25%
- reduction of tumor burden in combination with doxorubicin ([1]; doxorubicin 3 mg/kg, day 20): greater than 90%
- inhibition of angiogenesis in vivo [2]: successfully inhibited angiogenesis in vivo
